Assays:
[1] = tested on: 143B human osteosarcoma cells; assay: Tail vein injection of 143B human osteosarcoma cells, mouse model for metastasis; format: in vivo
Procedure: 5×10^5 143B human osteosarcoma cells stably expressing luciferase were injected into the tail vein of animals 5 mins after IV delivery of PBS or LSALT-peptide. Animals were sacrificed after 3 weeks. Lungs were then harvested, fixed in formalin, and embedded in paraffin. […] Metastatic lesions were visualized by staining human 143B osteosarcoma cells with anti-human nucleolin (brown). […] PBS n=4. LSALT-peptide n=6.
In a similar model, 5×10^5 143B human osteosarcoma cells stably expressing luciferase were injected into the tail vein of animals 5 mins after IV delivery of PBS or LSALT-peptide. Animals were imaged weekly using bioluminescence imaging (Xenogen, IVIS 200).

[2] = tested on: 4T1 murine breast cancer cells; assay: Intrasplenic injection of 4T1 murine breast cancer cells, liver metastasis; format: in vivo, mouse; conditions: 4-week post injection; control phage or LSALT expressing phage
[3] = tested on: 70 W human melanoma cells; assay: Tail vein injection of 70 W human melanoma cells expressing luciferase, lung tumor burden; format: in vivo, mice
Procedure: FIG. 13A-13F show the tumor burden in lung tissue from mice injected via tail vein with 1×10^6 70 W human melanoma cells expressing luciferase, with or without prior injection of 50 μM or 500 μM LSALT peptide (13A-13C) and representative images of lungs with visible melanotic lung […] in mice injected via tail vein with 1×10^6 70 W human melanoma cells expressing luciferase, with or without prior injection of 50 μM or 500 μM LSALT peptide mice (13D-13F).
FIG. 14A-14D show Xenogen images of lungs from mice injected via tail vein with human melanoma cells expressing luciferase with (14B) and without (14A) pretreatment with LSALT; and Xenogen images of lungs from mice injected treated as described for FIGS. 13A and 13B, and in the presence (14D) and absence (14C) of neutrophil depletion using anti-Ly6G/GRI antibody.
In one treatment study, […] melanoma cells expressing luciferase were injected via tail vein with or without prior injection of 50 μM or 500 μM LSALT peptide.
Animals were treated as above in the absence or presence of Neutrophil depletion using Anti-Ly6G/GR1, and the animals were imaged with the Xenogen light system.

[4] = tested on: BALB/c mice; assay: LPS intoxication model of sepsis; format: in vivo; conditions: versus control-bacteriophage/LPS and LPS only
Source text: An intoxication model of sepsis was used to assess peptide efficacy on sepsis. In intoxication models, mice are challenged with a noninfectious, proinflammatory compound, such as LPS or killed bacteria. In the present study, protocols were used that followed Andonegui G, et al., J Clin Invest. 2009 July; 119(7):1921-30; and Yipp B G, et al. J Immunol. 2002 May 1; 168(9):4650-8.
Briefly, purified LPS isolated from E. Coli was used to initiate endotoxemia response in BALB/c mice 6-8 weeks old. Mice were injected with LSALT bacteriophage that contain lethal amounts of LPS endotoxin.
When the animals started to show signs of distress they were sacrificed by euthanasia. All mice treated in this group (5 out of 5) had to be sacrificed due to a septic response.

[5] = prior injection of 50 μM or 500 μM, 4 weeks post-injection

LSALTPSPSWLKYKAL (listed as Homo sapiens) [LSALT peptide]
metastatic burden in mouse liver by bioluminescence (FIG. 16) ([1]; IV delivery 5 mins before cells, 3 weeks post injection): reduction in bioluminescence | number of metastatic lesions in mouse lung (FIG. 15) ([1]; IV delivery 5 mins before cells, 3 weeks, histological sections): reduction in metastatic lesions | metastatic spread of osteosarcoma cell line ([1]; mouse, in vivo): blocks the metastatic spread of an osteosarcoma cell line to the liver | FIG. 12 result, printed as number of neutrophils present in liver sinusoid tissue [2]: significantly reduced the number of neutrophils present in liver sinusoid tissue | tumor burden by Xenogen imaging with neutrophil depletion (FIGS. 14C, 14D) ([3]; neutrophil depletion using Anti-Ly6G/GR1): the same result was seen | tumor burden in the lungs, histology and excised lungs (FIG. 13) [3, 5]: the least tumor burden | visible melanotic lung nodules (FIG. 13) [3, 5]: least frequently | tumor burden by Xenogen imaging (FIGS. 14A, 14B) ([3]; without neutrophil depletion): progressively less tumor burden | neutrophil adhesion in sinusoids / neutrophil recruitment to the liver (FIG. 17A) [4]: reduced neutrophil recruitment to the liver

— patent US11083773B2, “Peptides that block leukocyte recruitment and methods of use” (ARCH CANCER THERAPEUTICS, INC., priority 2014, dated 2021)
